Source: patent publication US20100113507A1, “3-Tetrazolyl Indazoles, 3-Tetrazolyl Pyrazolopyridines, and use Thereof” (BAYER HEALTHCARE AG, priority 2006, published 2010)

Experiments:
[1] = test system: aorta rings; assay: Vasorelaxant effect in vitro (phenylephrine-contracted aorta rings); format: cell-based, Rabbits; settings: Oryctolagus cuniculus; rabbit aorta rings, contraction induced by phenylephrine, 37° C., 0.1% DMSO; read-out: IC50 (concentration necessary to reduce the level of contraction by 50%)
Method: Rabbits are stunned by a blow to the back of the neck and are exsanguinated. The aorta is removed, freed of adherent tissue, divided into rings 1.5 mm wide and placed singly in 5 ml organ baths with carbogen-gassed Krebs-Henseleit solution of the following composition (in each case mM): NaCl: 119; KCl: 4.8; CaCl2×2H2O: 1; MgSO4×7H2O: 1.4; KH2PO4: 1.2; NaHCO3: 25; glucose: 10, under an initial tension at 37° C. The force of contraction is detected with Statham UC2 cells, amplified and digitized via A/D converters (DAS-1802 HC, Keithley Instruments Munich), and recorded in parallel on chart recorders. A contraction is induced by adding phenylephrine to the bath cumulatively in increasing concentration. After several control cycles, the substance to be investigated is added in each further run in increasing dosage each time, and the level of contraction is compared with the level of contraction achieved in the last preceding run. The concentration necessary to reduce the level of contraction by 50% (IC50) is calculated therefrom. The standard application volume is 5 μl and the DMSO content in the bath solution corresponds to 0.1%.

[2] = reported by A. Straub et al., Bioorg. Med. Chem. Lett. 11, 781-784 (2001); cited from earlier work

Structure (SMILES) | IC50 [1] [µM] | vasorelaxant effect [2]
Fc1cccc(Cn2nc(-c3nnn[nH]3)c3cccnc32)c1F [Example 4, 1-(2,3-Difluorobenzyl)-3-(1H-tetrazol-5-yl)-1H-pyrazolo[3,4-b]pyridine] | 4.5 | –
Clc1ccc(Cn2nc(-c3nnn[nH]3)c3cccnc32)s1 [Example 7, 1-[(5-Chloro-2-thienyl)methyl]-3-(1H-tetrazol-5-yl)-1H-pyrazolo[3,4-b]pyridine] | 6.1 | –
c1cnc2c(c1)c(-c1nnn[nH]1)nn2CC1CCCCCC1 [Example 1, 1-(Cycloheptylmethyl)-3-(1H-tetrazol-5-yl)-1H-pyrazolo[3,4-b]pyridine] | 2 | –
Fc1ccccc1Cn1nc(-c2nnn[nH]2)c2cccnc21 [1-(2-fluorobenzyl)-3-(1H-tetrazol-5-yl)-1H-pyrazolo[3,4-b]pyridine] | – | moderately vasorelaxant effect
